pKi: −log10 of the molar value. Non-standard residues stand in square brackets, D forms with d. Residues, ends and D or L forms follow the SMILES beside them. *: point of attachment. dPhe(4-guanidino) = N=C(N)Nc1ccc(C[C@@H](N)C(=O)O)cc1; Phe(4-NO2) = N[C@@H](Cc1ccc([N+](=O)[O-])cc1)C(=O)O; Phe(4-amidino) = N=C(N)c1ccc(C[C@H](N)C(=O)O)cc1; Orn(acetimidoyl) = CC(=N)NCCC[C@H](N)C(=O)O; d(hArg) = N=C(N)NCCCC[C@@H](N)C(=O)O; Cha = N[C@@H](CC1CCCCC1)C(=O)O; Agb = N=C(N)NCC[C@H](N)C(=O)O; Phg = N[C@H](C(=O)O)c1ccccc1; Dab = NCC[C@H](N)C(=O)O; Alloc = C=CCOC(=O)*; Bn = c1ccc(C*)cc1

For this assay, the target named is T1, human factor VIIa and TF (Homo sapiens, UniProt P08709).
T1 construct: human factor VIIa and TF
T1 sequence (P08709 213-466 limits assumed): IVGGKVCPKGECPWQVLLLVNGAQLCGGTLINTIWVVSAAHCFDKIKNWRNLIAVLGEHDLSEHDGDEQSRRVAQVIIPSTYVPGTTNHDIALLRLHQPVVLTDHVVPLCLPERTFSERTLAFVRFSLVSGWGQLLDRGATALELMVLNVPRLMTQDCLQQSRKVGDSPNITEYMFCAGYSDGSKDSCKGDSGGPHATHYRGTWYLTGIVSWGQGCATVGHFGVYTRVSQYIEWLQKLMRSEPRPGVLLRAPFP
T1 sequence (P08709 61-212 limits assumed): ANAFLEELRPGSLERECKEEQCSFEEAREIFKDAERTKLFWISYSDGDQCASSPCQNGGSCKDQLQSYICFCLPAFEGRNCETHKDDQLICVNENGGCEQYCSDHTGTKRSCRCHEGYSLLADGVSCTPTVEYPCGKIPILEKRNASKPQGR
T1 sequence (P13726 33-295 partner): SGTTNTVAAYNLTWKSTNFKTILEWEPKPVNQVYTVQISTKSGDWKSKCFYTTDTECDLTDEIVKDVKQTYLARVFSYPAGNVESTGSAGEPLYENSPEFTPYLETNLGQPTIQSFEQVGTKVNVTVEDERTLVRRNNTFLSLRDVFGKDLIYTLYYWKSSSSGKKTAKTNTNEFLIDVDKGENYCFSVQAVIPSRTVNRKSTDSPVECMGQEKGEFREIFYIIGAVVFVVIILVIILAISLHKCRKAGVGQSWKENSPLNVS
Nature of the assay: Determination of Ki for FVIIa inhibition (chromogenic assay, substrate S-2288). The settings on record: human factor VIIa 5 nM and TF 10 nM, S-2288 500 μM, 25° C., 15 minute preincubation, pH 8.15; read-out: Factor VIIa inhibitory activities Ki. The format is biochemical. How it is done: The inhibitory activity (Ki) of each compound towards […] activity was determined using a chromogenic assay essentially as described previously. J. A. Ostrem, F. Al-Obeidi, P. Safar, A. Safarova, S. K. Stringer, M. Patek, M. T. Cross, J. Spoonamore, J. C. LoCascio, P. Kasireddy, D. S. Thorpe, N. Sepetov, M. Lebi, P. Wildgoose, P. Strop, "Discovery of a novel, potent, and specific family of factor Xa inhibitors via combinatorial chemistry". Biochemistry 37 (1998) 1053-1059. Kinetic assays were conducted at 25° C. in half-area microtiter plates (Costar Corp., Cambridge, Mass.) using a kinetic plate reader (Molecular Devices Spectramax 250). A typical assay consisted of 25 μl of human factor VIIa and TF (5 nM and 10 nM, respective final concentration) combined with 40 μl of inhibitor dilutions in 10% DMSO/TBS-PEG buffer (50 mM Tris, 15 mM NaCl, 5 mM CaCl2; 0.05% PEG 8k, pH 8.15). Following a 15 minute preincubation period, the assay was initiated by the addition of 35 μl of the chromogenic substrate S-2288 (D-Ile-Pro-Arg-pNA, Pharmacia Hepar Inc, 500 μM final concentration.). The apparent inhibition constants were calculated from the slope of the progress curves during the linear part of the time course, typically between 1 and 5 min following addition of substrate to the assay. The true Ki was subsequently determined for each compound by correcting for substrate concentration (S) and the Km using the formula Ki=Ki app/(1+(S)/Km). I. H. Segal, Enzyme Kinetics, pp 100-125 (John Wiley & Sons, N.Y., 1975).
For `C=CCOC(=O)N[C@@H](Cc1ccc(C(=N)N)cc1)C(=O)N[C@@H](CCC(=O)O)C(=O)N[C@@H](CSCc1ccccc1)C(=O)N[C@@H](CC1CCCCC1)C(N)=O` [Alloc--pAph--Glu--Cys(Bzl)--Cha--NH2] (Alloc-[Phe(4-amidino)]EC(Bn)[Cha]-NH2), the pKi was 7.59.
Under `C=CCOC(=O)N[C@@H](Cc1ccc(C(=N)N)cc1)C(=O)N[C@@H](CCC(=O)O)C(=O)N[C@@H](CSC)C(=O)N[C@@H](CC1CCCCC1)C(N)=O` [Alloc--pAph--Glu--Cys(Me)--Cha--NH2] (Alloc-[Phe(4-amidino)]EC(Me)[Cha]-NH2) stands 6.70.
Regarding `C=CCOC(=O)N[C@@H](Cc1ccc(C(=N)N)cc1)C(=O)N[C@@H](CCC(=O)O)C(=O)N[C@H](CCCNC(=N)N)C(=O)N[C@@H](CC1CCCCC1)C(N)=O` [Alloc--pAph--Glu--D--Arg--Cha--NH2] (Alloc-[Phe(4-amidino)]E[dR][Cha]-NH2), the pKi is 4.92.
Under `C=CCOC(=O)N[C@@H](Cc1ccc(C(=N)N)cc1)C(=O)N[C@@H](CCC(=O)O)C(=O)N[C@H](CCCCNC(=N)N)C(=O)N[C@@H](CC1CCCCC1)C(N)=O` [Alloc--pAph--Glu--D--Lys[--C(=NH)--NH2]--Cha--NH2] (Alloc-[Phe(4-amidino)]E[d(hArg)][Cha]-NH2) stands 4.66.
As to `C=CCOC(=O)N[C@@H](Cc1ccc(C(=N)N)cc1)C(=O)N[C@@H](CCC(=O)O)C(=O)N[C@H](Cc1ccc(NC(=N)N)cc1)C(=O)N[C@@H](CC1CCCCC1)C(N)=O` [Alloc--pAph--Glu--D--Phe(4-guanidino)--Cha--NH2] (Alloc-[Phe(4-amidino)]E[dPhe(4-guanidino)][Cha]-NH2), the negative-log Ki (pKi) was 4.95.
Consider `C=CCOC(=O)NCC[C@H](NC(=O)[C@H](CCC(=O)O)NC(=O)[C@H](Cc1ccc(C(=N)N)cc1)NC(=O)OCC=C)C(=O)N[C@@H](CC1CCCCC1)C(N)=O` [Alloc--pAph--Glu--Dab(Alloc)--Cha--NH2] (Alloc-[Phe(4-amidino)]E[Dab](Alloc)[Cha]-NH2), for which the negative-log Ki (pKi) is 6.82.
For the molecule `C=CCOC(=O)N[C@@H](Cc1ccc(C(=N)N)cc1)C(=O)N[C@@H](CCC(=O)O)C(=O)N[C@@H](CCN)C(=O)N[C@@H](CC1CCCCC1)C(N)=O` [Alloc--pAph--Glu--Dab--Cha--NH2, Alloc-pAph-Glu-Dab-Cha-NH2] (Alloc-[Phe(4-amidino)]E[Dab][Cha]-NH2), the negative logarithm of the Ki (pKi) was 7.26.
Under `C=CCOC(=O)N[C@@H](Cc1ccc(C(=N)N)cc1)C(=O)N[C@@H](CCC(=O)O)C(=O)N[C@@H](CCN)C(=O)NCCc1ccccc1` [Alloc--pAph--Glu--Dab--NH--(CH2)2 --Ph, Alloc-pAph-Glu-Dab-NH--CH2 --CH2 --Ph] stands 6.42; under `C=CCOC(=O)N[C@@H](Cc1ccc(C(=N)N)cc1)C(=O)N[C@@H](CCC(=O)O)C(=O)N[C@@H](CCNC(C)=N)C(=O)N[C@@H](CC1CCCCC1)C(N)=O` [Alloc--pAph--Glu--Dab[--C(=NH)--CH3]--Cha--NH2], 6.72.
`C=CCOC(=O)N[C@@H](Cc1ccc(C(=N)N)cc1)C(=O)N[C@@H](CCC(=O)O)C(=O)N[C@@H](CCNC(=N)N)C(=O)N[C@@H](CC1CCCCC1)C(N)=O` [Alloc--pAph--Glu--Dab[--C(=NH)--NH2]--Cha--NH2] (Alloc-[Phe(4-amidino)]E[Agb][Cha]-NH2): the pKi is 7.92.
In the case of `C=CCOC(=O)N[C@@H](Cc1ccc(C(=N)N)cc1)C(=O)N[C@@H](CCC(=O)O)C(=O)N[C@@H](CNC(=N)N)C(N)=O` [Alloc--pAph--Glu--Dap[--C(=NH)--NH2]--NH2], the negative logarithm of the Ki (pKi) is 6.59.
With `C=CCOC(=O)N[C@@H](Cc1ccc(C(=N)N)cc1)C(=O)N[C@@H](CCC(=O)O)C(=O)N[C@@H](CNC(=N)N)C(=O)N[C@@H](Cc1ccc(C2(c3ccccc3)SCCS2)cc1)C(N)=O` [Alloc--pAph--Glu--Dap[--C(=NH)--NH2]--Phe[4-C(--S--(CH2)2 --S--)--Ph]--NH2], the pKi was 7.82.
For the molecule `C=CCOC(=O)N[C@@H](Cc1ccc(C(=N)N)cc1)C(=O)N[C@@H](CCC(=O)O)C(=O)N[C@@H](CCC(N)=O)C(N)=O` [Alloc--pAph--Glu--Gln--NH2], the pKi was 5.82.
As to `C=CCOC(=O)N[C@@H](Cc1ccc(C(=N)N)cc1)C(=O)N[C@@H](CCC(=O)O)C(=O)NCC(=O)N[C@@H](CC1CCCCC1)C(N)=O` [Alloc--pAph--Glu--Gly--Cha--NH2, Alloc-pAph-Glu-Gly-Cha-NH2] (Alloc-[Phe(4-amidino)]EG[Cha]-NH2), the pKi is 6.92.
Next, `C=CCOC(=O)N[C@@H](Cc1ccc(C(=N)N)cc1)C(=O)N[C@@H](CCC(=O)O)C(=O)N[C@@H](Cc1c[nH]cn1)C(=O)N[C@@H](CC1CCCCC1)C(N)=O` [Alloc--pAph--Glu--His--Cha--NH2] (Alloc-[Phe(4-amidino)]EH[Cha]-NH2): 6.85.
Next, `C=CCOC(=O)N[C@@H](Cc1ccc(C(=N)N)cc1)C(=O)N[C@@H](CCC(=O)O)C(=O)N[C@@H](CCSC)C(=O)N[C@@H](CC1CCCCC1)C(N)=O` [Alloc--pAph--Glu--Met--Cha--NH2] (Alloc-[Phe(4-amidino)]EM[Cha]-NH2): 6.96.
Turning to `C=CCOC(=O)N[C@@H](Cc1ccc(C(=N)N)cc1)C(=O)N[C@@H](CCC(=O)O)C(=O)N[C@@H](CCCN)C(N)=O` [Alloc--pAph--Glu--Orn--NH2], the pKi was 5.21.
For the molecule `C=CCOC(=O)N[C@@H](Cc1ccc(C(=N)N)cc1)C(=O)N[C@@H](CCC(=O)O)C(=O)N[C@@H](CCCNC(C)=N)C(=O)N[C@@H](CC1CCCCC1)C(N)=O` [Alloc--pAph--Glu--Orn[--C(=NH)--CH3]--Cha--NH2] (Alloc-[Phe(4-amidino)]E[Orn(acetimidoyl)][Cha]-NH2), the negative logarithm of the Ki (pKi) was 6.89.
Next, `C=CCOC(=O)N[C@@H](Cc1ccc(C(=N)N)cc1)C(=O)N[C@@H](CCC(=O)O)C(=O)N[C@@H](Cc1ccc([N+](=O)[O-])cc1)C(=O)N[C@@H](CC1CCCCC1)C(N)=O` [Alloc--pAph--Glu--Phe(4-NO2)--Cha--NH2] (Alloc-[Phe(4-amidino)]E[Phe(4-NO2)][Cha]-NH2): 7.34; `C=CCOC(=O)N[C@@H](Cc1ccc(C(=N)N)cc1)C(=O)N[C@@H](CCC(=O)O)C(=O)N[C@H](C(=O)N[C@@H](CC1CCCCC1)C(N)=O)c1ccccc1` [Alloc--pAph--Glu--Phg--Cha--NH2] (Alloc-[Phe(4-amidino)]E[Phg][Cha]-NH2): 7.77.
Under `C=CCOC(=O)N[C@@H](Cc1ccc(C(=N)N)cc1)C(=O)N[C@@H](CCC(=O)O)C(=O)N[C@H](C(=O)N[C@@H](CC1CCCCC1)C(N)=O)[C@@H](C)OCc1ccccc1` [Alloc--pAph--Glu--Thr(Bzl)--Cha--NH2] (Alloc-[Phe(4-amidino)]ET(Bn)[Cha]-NH2) stands 7.72; under `C=CCOC(=O)N[C@@H](Cc1ccc(C(=N)N)cc1)C(=O)N[C@@H](CCC(=O)O)C(=O)N[C@@H](Cc1c[nH]c2ccccc12)C(=O)N[C@@H](CC1CCCCC1)C(N)=O` [Alloc--pAph--Glu--Trp--Cha--NH2] (Alloc-[Phe(4-amidino)]EW[Cha]-NH2), 7.77.
Under `C=CCOC(=O)N[C@@H](Cc1ccc(C(=N)N)cc1)C(=O)N[C@@H](CCC(=O)O)C(=O)N[C@@H](CC(=N)N)C(=O)N[C@@H](CC1CCCCC1)C(N)=O` [Alloc-pAph-Glu-Ala[3-C(=NH)--NH2 ]-Cha-NH2] stands 7.52; under `C=CCOC(=O)N[C@@H](Cc1ccc(C(=N)N)cc1)C(=O)N[C@@H](CCC(=O)O)C(=O)N[C@@H](CNC(C)=N)C(=O)N[C@@H](CC1CCCCC1)C(N)=O` [Alloc-pAph-Glu-Dap[--C(=NH)--CH3 ]-Cha-NH2], 6.96.
